{"source": "patent US8293240B2", "about": "“Method of treating drug-resistant cancer” (The Regents of the University of Colorado, priority 2004, dated 2012)", "format_in_all_cases": "cell-based", "key": {"[1]": {"system": "HL60 MDR human leukemia cells", "experiment": "percent death of HL60 MDR cells (flow cytometry, live versus dead)", "protocol": "Dot plots as a function of live versus dead cells. The cells were cultured at a concentration of 0.5 to 1 million cells per ml. Cells were untreated or treated with or 2-deoxy-D-glucose and/or etomoxir and/or antibodies to UCP2 and used at dilutions or concentrations as indicated on the figure. The cells were cultured in the presence or absence of etomoxir at 100 micrograms/ml for 24 hours followed by treatment with antibody as indicated for an additional 24 or 48 hours (i.e. totals of 48 hours or 72 hours respectively). Cells were harvested and analyzed by flow cytometry. Each dot on the dot plot represents one cell. Five thousand cells were assessed for forward scatter (FS), as a function of cell size, versus side scatter (SS), as a function of cellular granularity. The upper elipse represents live cells by these criterion and the lower elipse in each dot plot represents the dead cells.\nStatistical Analysis, Percents, and Geometric Mean Values Percents. Gating is a tool provided by Cell Quest software and allows for the analysis of a certain population of cells. Gating around both the live and dead cell populations gave a percent of the cell numbers that was in each population. After the gates were drawn, a percent value of dead cells was calculated by taking the number of dead cells divided by the number of total cells and multiplying by one hundred.\nHL60 MDR human leukemia cells were cultured as described above under “Materials and Methods”. Cells were untreated or treated with etomoxir, with 2-deoxy-D-glucose, or with a combination of etomoxir and 2-deoxy-D-glucose, at concentrations indicated in FIG. 27 for 24 hours. Cells were harvested and analyzed by flow cytometry.\nReferring to FIGS. 31 and 32, HL60 MDR cells, cultured as described in Example 21, were untreated or treated with etomoxir, with 2-deoxy-D-glucose, or with a combination of etomoxir and 2-deoxy-D-glucose, at concentrations indicated in FIG. 31 for 48 hours. Cells were harvested and analyzed by flow cytometry.\nReferring to FIGS. 35 and 36, HL60 MDR cells, cultured as described in Example 21, were treated with anti-UCP2 antibody and otherwise untreated or treated simultaneously with etomoxir, 2-deoxy-D-glucose, or both, at concentrations indicated in FIG. 35 for 48 hours. Cells were harvested and analyzed by flow cytometry."}, "[2]": {"system": "A-204 human rhabdomyosarcoma cells", "experiment": "cell surface UCP2 expression on A-204 cells", "conditions": "A-204, 24, 48, & 72 hours, FIG. 26", "method": "Cell Surface Staining. Non-permeabilized cells were stained with antibodies to the cell surface receptors Fas (CD95) (Pharmingen) or with antibodies to uncoupling proteins (anti-UCP2 antibody) (Alpha Diagnostic International). Antibodies for both the isotype control and actual stain were added to the cell suspension, mixed, and then placed on ice for and incubation of 25 minutes in the dark. Subsequently the cells were centrifuged at 300×g for 5 minutes and the supernatant removed. The cells were washed one time with 100 μL of PBS/2.5% FBS and then transferred into flow cyotmetric tubes containing 500 μL of PBS/2.5% FBS for analysis.\nA204 human rhabdomyosarcoma cells were cultured at a concentration of 0.5 to 1 million cells per ml. Cells were untreated or treated with etomoxir at concentrations indicated in FIG. 24 for 24, 48, & 72 hours. Cells were harvested and analyzed by flow cytometry. Dot plots are shown in FIG. 24 as functions of live versus dead cells. […] Five thousand cells were assessed for forward scatter (FS), as a function of cell size, versus side scatter (SS), as a function of cellular granularity. […]\nCells were untreated or treated with etomoxir at the concentration indicated in FIG. 26 at the indicated concentration for 24, 48, & 72 hours. Cells were harvested, stained with fluorochrome conjugated with anti-UCP2 antibody and analyzed by flow cytometry."}, "[3]": {"system": "human leukemia HL60 cells", "experiment": "DCFDA staining, HL60", "conditions": "HL60, 24 hours of incubation, FIG. 14", "method": "(§1) Flow Cytometry. Cells were harvested, counted, and resuspended at 10^6 cells/100 μl of PBS containing 2.5% fetal calf serum in preparation for flow cytometric analysis. Cells were stained for intracellular H202 using 6-carboxy-2′,7′-dichlorodihydrofluorescein diacetate (DCF-DA, Molecular Probes, Eugene, Oreg.). Briefly, cells were incubated at 37° with 1 mM DCF-DA for 20 minutes, washed twice in PBS containing 2.5% fetal calf serum and analyzed flow cytometrically. Mitochondrial membrane potential was assessed using Mitotracker Red (CM-H2XROS, Molecular Probes, Eugene, Oreg.). The cells were resuspended in PBS containing 2.5% fetal calf serum containing a final concentration of 0.5 micromolar Mitotracker dye. The cells were incubated at 37° for 20 minutes, washed twice in PBS containing 2.5% fetal calf serum and analyzed flow cytometrically. Data were acquired on a Coulter Elite Epics or Excel flow cytometer (Coulter, Hialeah, Fla.) and analyzed with CellQuest software, (Becton Dickinson, San Jose, Calif.). […] Each sample population was classified for cell size (forward scatter) and complexity (side scatter), gated on a population of interest and evaluated using 5,000 cells. […]\nThe effects of etomoxir on human leukemia HL60 cells was determined. […]"}, "[4]": {"system": "L1210 cells", "experiment": "DCFDA staining (reactive intermediates), L1210", "conditions": "L1210, 24 hours of incubation, FIG. 12A", "method": "as §1, with “The cells were resuspended in PBS containing 2.5% fetal calf serum containing a final concentration of 0.5 micromolar Mitotracker dye.” left out\nWe measured the effects of etomoxir on metabolism by measuring mitochondrial membrane potential with a fluorescent dye (Mitotracker Red, Molecular Probes, Eugene, Oreg.) which fluoresces as a function of mitochondrial potential. […]"}}, "data": [{"smiles": "CCOC(=O)C1(CCCCCCOc2ccc(Cl)cc2)CO1", "note": "(centres unmarked) [etomoxir, 2-(6-(4-chlorophenoxy)-hexyl)-oxirane-2-carboxylic acid ethyl ester]", "values": [{"measurement": "percent of cell deaths", "setting": "[1]; HL60 MDR cells after 24 hours", "result": 11, "unit": "%"}, {"measurement": "percent of cell deaths", "setting": "[1]; HL60 MDR cells after 48 hours", "result": 14, "unit": "%"}, {"measurement": "cell surface UCP2 expression in the live cells", "setting": "[2]", "result": "time dependent “fold” increases"}, {"measurement": "reactive oxygen intermediates, DCFDA staining", "setting": "[3]", "result": "increases in reactive oxygen intermediates"}, {"measurement": "free radicals (reactive intermediates), DCFDA staining", "setting": "[4]", "result": "increase in free radicals"}]}]}
